Data on two substances can be found in article PMC7459541, “Frog Skin-Derived Peptides Against Corynebacterium jeikeium: Correlation between Antibacterial and Cytotoxic Activities” (Antibiotics, 2020).

Where no end group is shown, it is not given here.

Data set [1] relates to C. jeikeium ATCC BAA-949. The class given is cell-based, Corynebacterium jeikeium. The conditions noted are these: lowest peptide concentration visually inhibiting growth after 20 h at 37 °C; TSB + 0.1% Tween 80; 2-fold serial dilutions; inoculum 2x10^6 CFU/mL diluted 1:1. As to the method: The MIC of the different AMPs against C. jeikeium ATCC BAA-949 were determined following the previously described procedure with some modifications. The bacterium was grown in TSB^+ up to an optical density (O.D.) of 0.8 (λ = 590 nm) and diluted to reach a concentration of 2× 10^6 colony forming units (CFU) per mL. Aliquots (50 µL) of this dilution were added to 50 µL of TSB^+ supplemented with 2-fold serial dilution of peptides previously dispensed in the wells of a 96 well plate. Controls were bacteria not treated with the peptides. […] MBC was defined as the lowest peptide concentration able to cause a ≥3 log reduction in the number of cells of the initial inoculum after 20 h of incubation.

Data set [2] relates to murine RAW 264.7 macrophages. The conditions noted are these: 64 µM; cited from earlier work.

Take “IIGPVLGLVGSALGGLLKKI-NH2 [Bombinin H2, bombinin H2]”: the MIC (in general, the lowest concentration that inhibits growth of the organism) in data set [1] came to 8 µM.
Turning to “GIFSKLAGKKIKNLLISGLKG-NH2 [Esc(1-21), esculentin-1a(1-21)]”, the cell viability entry in data set [2] is recorded as “about 50%”.
